Reference: patent publication US7816343B2, “Wood preservative composition” (HWD Acquisition, Inc., priority 2007, dated 2010)

Legend:
[1] = Compatibility Test B: mixtures of single borate esters with Fungicide I; type: physicochemical; details: for appearance during mixing / separation or precipitation after mixing: borate ester mixed with Fungicide I (TBGB, HGB 10%); for overall stability of mixture with Fungicide I: conclusion from the observations; for collapse of closed container (moisture drawn from air): mixture with Fungicide I in closed container, TBGB a week, THGB 18 days
From the text: A mixture of Fungicide I and a 10% tributylene glycol biborate (TBGB) was made by pouring the TBGB into the Fungicide I. The following observations were made while making and after making the mixture.
The TBGB reacted with moisture in the air while pouring and formed a thin white film over the pour stream. […] This behavior was duplicated by opening the container and allowing it to come back to its normal shape and closing the container again. It is noted that TBGB in a fungicide mixture when open to the air will draw moisture from the air and hydrolyze to a form insolubles and result in an increase in the separated phase. The hazing during mixing and phase separation seen during the first test was identical to that observed during this mixing.
The TBGB test was repeated using a mixture of 10% hexylene glycol biborate (HGB). The mixture was made by pouring the HGB into the Fungicide I composition. The following observations were made while making and after making the mixture:
The container was closed. The crystalline material is soluble in water and isopropyl alcohol. A 10% HGB/mineral spirits solution was made to test for moisture adsorption from the air. […] The crystalline material is likely the hydroxy hexylene glycol borate compound formed by hydrolysis of the anhydride bond. The crystal formation in the HGB testing is similar to that observed in the first test in the test mixture storage drum.
The basic observations are that both the TBGB and HGB react with various components of the Fungicide I mixture and react with moisture in the air.
A mixture of tri hexylene glycol biborate (THGB) and Fungicide I was made. It was observed that the solution remains clear with no separation. Next, the mixture was left open to atmosphere for 90 days at 40% to 50% relative humidity conditions. […] A 10% evaporative loss of mineral spirits approximately every 14 days was replaced with new mineral spirits without any negative effects. […] The mixture was placed in a 0° F. freezer overnight. […] The mixture was placed in a 42° F. refrigerator for 63 hours.

[2] = cited from earlier work

CC1CC(C)(C)OB(OB2OC(C)CC(C)(C)O2)O1 (stereo not drawn) [HGB, hexylene glycol biborate]
appearance of solution, container closed ([1]; 10% HGB/mineral spirits solution, container closed): remained clear without separation or solid precipitation | appearance of solution, container open to air ([1]; 10% HGB/mineral spirits solution, opened to air, over night): white crystal formation | appearance during mixing [1]: remained clear during mixing | separation or precipitation after mixing [1]: opaque white crystalline material immediately formed on the container surfaces | overall stability of mixture with Fungicide I [1]: too reactive to form stable mixtures

CC1CCOB(OCCC(C)OB2OCCC(C)O2)O1 (stereo not drawn) [TBGB, tributylene glycol biborate]
appearance during mixing [1]: immediately became hazy | separation or precipitation after mixing [1]: brownish/red colored layer immediately began to form at the bottom of the container | overall stability of mixture with Fungicide I [1]: too reactive to form stable mixtures | collapse of closed container (moisture drawn from air) [1]: collapse slightly after a week

CC1CC(C)(C)OB(OC(C)CC(C)(C)OB2OC(C)CC(C)(C)O2)O1 (stereo not drawn) [THGB, tri hexylene glycol biborate]
redissolution on heating ([1]; after freezer, heated to approximately 20 F with stirring): dissolved all of the white solids | appearance during mixing [1]: remains clear | separation or precipitation after mixing [1]: no separation | overall stability of mixture with Fungicide I [1]: produces stable mixtures | collapse of closed container (moisture drawn from air) [1]: without any collapse | appearance after open storage ([1]; mixture with Fungicide I left open to atmosphere 90 days, 40% to 50% relative humidity): remained clear with no separation and no precipitation of solids | appearance after freezer storage ([1]; mixture with Fungicide I, 0° F. freezer overnight): white solids were observed at the bottom of the container | appearance after refrigerator storage ([1]; mixture with Fungicide I, 42° F. refrigerator, 63 hours): remained clear without separation or precipitation

OB(O)O [boric acid]
maximum boron concentration of saturated aqueous solution [2]: no more than one
